Assay results taken from patent publication US20240382471A1, “GLUCAGON-LIKE PEPTIDE-1 RECEPTOR MODULATORS AND USES THEREOF” (HEPAGENE THERAPEUTICS (HK) LIMITED, priority 2021, published 2024).

Target: GLP1R (Homo sapiens, UniProt P43220)
Assay: GLP1R/CRE-Luc luciferase reporter gene assay (agonist activity)
Format: cell-based
Set-up: host or cells: HKE293 (so in the source)
Conditions: HKE293-Human GLP1R/CRE-luc cells, 5 h at 37° C., read-out: EC50 (nM) Assay 2
Protocol: GLP1R-mediated agonist activity was determined with a cell-based functional assay utilizing a britelite plus luciferase reporter gene assay system. The stable cell line overexpress GLP1R and target response element. The stimulation with GLP1R agonist results in the upregulation of intracellular cAMP, which regulate the activities of cAMP-response element binding protein (CREB) and CREB-Luc. Reagents and equipment used in the assay are listed below, followed by the protocol.
• 1) Cell Line: HKE293-Human GLP1R/CRE-luc • 2) Complete Medium: DMEM+10% FBS+1×Penicillin-Streptomycin+400 μg/mL G418
• a) Seed HKE293-Human GLP1R/CRE-luc cells at 20,000 cells/well into 384 well assay plate (6007680-50, PE) using complete medium and incubate overnight. • b) Prepare 6×compound working solution with Medium. • c) Add 5 μL 6×compound working solution into cell plate, incubate 5 h at 37° C. • d) Add 20 μl britelite plus Luciferase Assay Reagent into each well of 384-well assay plate. • e) Record the luminescence value on Envision plate reader.
• 3.1% Activity is calculated as follow:
% Activity=(Signalcmpd−SignalAve_VC)/(SignalAve_PC−SignalAve_VC)×100. • 3.2 Calculate EC50 and Plot effect-dose curve of cmpds:
Y=Bottom+(Top−Bottom)/(1+10^((Log EC50−X)*HillSlope)) • X: log of agonist concentration; Y: % Activity.

Sequence of GLP1R (P43220 24-463): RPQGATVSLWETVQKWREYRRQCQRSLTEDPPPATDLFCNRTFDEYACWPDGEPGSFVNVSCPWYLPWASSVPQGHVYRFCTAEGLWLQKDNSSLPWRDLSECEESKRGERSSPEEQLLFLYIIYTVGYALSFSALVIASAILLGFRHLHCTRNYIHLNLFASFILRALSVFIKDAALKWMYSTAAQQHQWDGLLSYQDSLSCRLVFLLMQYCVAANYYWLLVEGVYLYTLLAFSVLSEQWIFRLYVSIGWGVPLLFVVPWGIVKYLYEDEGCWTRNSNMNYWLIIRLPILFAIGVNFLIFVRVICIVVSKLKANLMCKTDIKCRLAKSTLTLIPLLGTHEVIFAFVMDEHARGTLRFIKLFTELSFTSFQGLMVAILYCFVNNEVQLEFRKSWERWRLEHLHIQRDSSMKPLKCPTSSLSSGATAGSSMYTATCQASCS

COc1cc(C#N)ccc1COc1nc(C23CCN(Cc4nc5c(OC)cc(C(=O)O)cc5n4C[C@@H]4CCO4)CC2C3)ccc1F (stereo partly drawn) [Compound 1-28, 2-((6-(6-((4-cyano-2-methoxybenzyl)oxy)-5-fluoropyridin-2-yl)-3-azabicyclo[4.1.0]heptan-3-yl)methyl)-4-methoxy-1-(((S)-oxetan-2-yl)methyl)-1H-benzo[d]imidazole-6-carboxylic acid]
EC50: 0.46 nM

COc1c(COc2cccc(C34CCN(Cc5nc6ccc(C(=O)O)cc6n5C[C@@H]5CCO5)CC3C4)n2)ccc(C#N)c1F (stereo partly drawn) [Compound 1-29, 2-((6-(6-((4-cyano-3-fluoro-2-methoxybenzyl)oxy)pyridin-2-yl)-3-azabicyclo[4.1.0]heptan-3-yl)methyl)-1-(((S)-oxetan-2-yl)methyl)-1H-benzo[d]imidazole-6-carboxylic acid]
EC50: 168 nM

COc1cc(C#N)ccc1COc1nc(C23CCN(Cc4nc5c(OC)cc(C(=O)O)cc5n4C[C@@H]4CCO4)CC2C3)ncc1C (stereo partly drawn) [Compound 1-33, 2-((6-(4-((4-cyano-2-methoxybenzyl)oxy)-5-methylpyrimidin-2-yl)-3-azabicyclo[4.1.0]heptan-3-yl)methyl)-4-methoxy-1-(((S)-oxetan-2-yl)methyl)-1H-benzo[d]imidazole-6-carboxylic acid]
EC50: 105 nM

COc1cc(C#N)ccc1COc1cncc(C23CCN(Cc4nc5ccc(C(=O)O)cc5n4C[C@@H]4CCO4)CC2C3)n1 (stereo partly drawn) [Compound 1-21, 2-((6-(6-((4-cyano-2-methoxybenzyl)oxy)pyrazin-2-yl)-3-azabicyclo[4.1.0]heptan-3-yl)methyl)-1-(((S)-oxetan-2-yl)methyl)-1H-benzo[d]imidazole-6-carboxylic acid]
EC50: 39.1 nM

COc1cc(C#N)ccc1COc1nccc(C23CCN(Cc4nc5ccc(C(=O)O)cc5n4C[C@@H]4CCO4)CC2C3)n1 (stereo partly drawn) [Compound 1-27, 2-((6-(2-((4-cyano-2-methoxybenzyl)oxy)pyrimidin-4-yl)-3-azabicyclo[4.1.0]heptan-3-yl)methyl)-1-(((S)-oxetan-2-yl)methyl)-1H-benzo[d]imidazole-6-carboxylic acid]
EC50: 11.7 nM

COc1cc(C#N)ccc1COc1cccc(C23CCN(Cc4nc5c(OC(F)(F)F)cc(C(=O)O)cc5n4C[C@@H]4CCO4)CC2C3)n1 (stereo partly drawn) [Compound 1-22, 2-((6-(6-((4-cyano-2-methoxybenzyl)oxy)pyridin-2-yl)-3-azabicyclo[4.1.0]heptan-3-yl)methyl)-1-(((S)-oxetan-2-yl)methyl)-4-(trifluoromethoxy)-1H-benzo[d]imidazole-6-carboxylic acid]
EC50: 14.4 nM

COc1nc(C#N)ccc1COc1cccc(C23CCN(Cc4nc5ccc(C(=O)O)cc5n4C[C@@H]4CCO4)CC2C3)n1 (stereo partly drawn) [Compound 1-13, 2-((6-(6-((6-cyano-2-methoxypyridin-3-yl)methoxy)pyridin-2-yl)-3-azabicyclo[4.1.0]heptan-3-yl)methyl)-1-(((S)-oxetan-2-yl)methyl)-1H-benzo[d]imidazole-6-carboxylic acid]
EC50: 35.8 nM

CCn1cncc1Cn1c(CN2CCC3(c4nccc(OCc5ccc(C(F)(F)F)cc5OC)n4)CC3C2)nc2c(OC)cc(C(=O)O)cc21 (centres unmarked) [Compound 1-48, 1-((1-ethyl-1H-imidazol-5-yl)methyl)-4-methoxy-2-((6-(4-((2-methoxy-4-(trifluoromethyl)benzyl)oxy)pyrimidin-2-yl)-3-azabicyclo[4.1.0]heptan-3-yl)methyl)-1H-benzo[d]imidazole-6-carboxylic acid]
EC50: 0.33 nM

COc1cc(C#N)ccc1COc1cccc(C23CCN(Cc4nc5c(Cl)cc(C(=O)O)cc5n4C[C@@H]4CCO4)CC2C3)n1 (stereo partly drawn) [Compound 1-25, 4-chloro-2-((6-(6-((4-cyano-2-methoxybenzyl)oxy)pyridin-2-yl)-3-azabicyclo[4.1.0]heptan-3-yl)methyl)-1-(((S)-oxetan-2-yl)methyl)-1H-benzo[d]imidazole-6-carboxylic acid]
EC50: 0.95 nM

COc1cc(C#N)ccc1COc1cccc(C23CCN(Cc4nc5ccc(C(=O)O)cc5n4C[C@@H]4CCO4)CC2C3)n1 (single isomer, unassigned) [Compound 1-6-B]
EC50: 4.98 nM

COc1cc(C#N)ccc1COc1cccc(C23CCN(Cc4nc5ccc(C(=O)O)cc5n4C[C@@H]4CCO4)CC2C3)n1 (single isomer, unassigned) [Compound 1-6-A]
EC50: 5.55 nM

COc1cc(Br)ccc1COc1cccc(C23CCN(Cc4nc5ccc(C(=O)O)cc5n4C[C@@H]4CCO4)CC2C3)n1 (stereo partly drawn) [Compound 1-16, 2-((6-(6-((4-bromo-2-methoxybenzyl)oxy)pyridin-2-yl)-3-azabicyclo[4.1.0]heptan-3-yl)methyl)-1-(((S)-oxetan-2-yl)methyl)-1H-benzo[d]imidazole-6-carboxylic acid]
EC50: 24.8 nM

[2H]C([2H])([2H])Oc1cc(C(=O)O)cc2c1nc(CN1CCC3(c4cccc(OCc5ccc(C#N)cc5OC)n4)CC3C1)n2C[C@@H]1CCO1 (stereo partly drawn) [Compound 1-32, 2-((6-(6-((4-cyano-2-methoxybenzyl)oxy)pyridin-2-yl)-3-azabicyclo[4.1.0]heptan-3-yl)methyl)-4-(methoxy-d3)-1-(((S)-oxetan-2-yl)methyl)-1H-benzo[d]imidazole-6-carboxylic acid]
EC50: 0.49 nM

COc1cc(C#N)ccc1COc1cccc(C23CCN(Cc4nc5c(C)cc(C(=O)O)cc5n4C[C@@H]4CCO4)CC2C3)n1 (stereo partly drawn) [Compound 1-18, 2-((6-(6-((4-cyano-2-methoxybenzyl)oxy)pyridin-2-yl)-3-azabicyclo[4.1.0]heptan-3-yl)methyl)-4-methyl-1-(((S)-oxetan-2-yl)methyl)-1H-benzo[d]imidazole-6-carboxylic acid]
EC50: 13.4 nM

COc1cc(C#N)ccc1COc1ccnc(C23CCN(Cc4nc5c(OC(C)C)cc(C(=O)O)cc5n4C[C@@H]4CCO4)CC2C3)n1 (stereo partly drawn) [Compound 1-42, 2-((6-(4-((4-cyano-2-methoxybenzyl)oxy)pyrimidin-2-yl)-3-azabicyclo[4.1.0]heptan-3-yl)methyl)-4-isopropoxy-1-(((S)-oxetan-2-yl)methyl)-1H-benzo[d]imidazole-6-carboxylic acid]
EC50: 6.5 nM

COc1cc(C#N)ccc1COc1ccnc(C23CCN(Cc4nc5ccc(C(=O)O)cc5n4C[C@@H]4CCO4)CC2C3)n1 (single isomer, unassigned) [Compound 1-26-B]
EC50: 7.54 nM

COc1cc(C#N)ccc1COc1cccc(C23CCN(Cc4nc5c(C(C)=O)cc(C(=O)O)cc5n4C[C@@H]4CCO4)CC2C3)n1 (stereo partly drawn) [Compound 1-20, 4-acetyl-2-((6-(6-((4-cyano-2-methoxybenzyl)oxy)pyridin-2-yl)-3-azabicyclo[4.1.0]heptan-3-yl)methyl)-1-(((S)-oxetan-2-yl)methyl)-1H-benzo[d]imidazole-6-carboxylic acid]
EC50: 9.67 nM

COCc1ccc(COc2cccc(C34CCN(Cc5nc6ccc(C(=O)O)cc6n5C[C@@H]5CCO5)CC3C4)n2)c(OC)c1 (stereo partly drawn) [Compound 1-15, 2-((6-(6-((2-methoxy-4-(methoxymethyl)benzyl)oxy)pyridin-2-yl)-3-azabicyclo[4.1.0]heptan-3-yl)methyl)-1-(((S)-oxetan-2-yl)methyl)-1H-benzo[d]imidazole-6-carboxylic acid]
EC50: 439 nM

COc1nc(C#N)ccc1COc1ccnc(C23CCN(Cc4nc5c(OC)cc(C(=O)O)cc5n4C[C@@H]4CCO4)CC2C3)n1 (stereo partly drawn) [Compound 1-35, 2-((6-(4-((6-cyano-2-methoxypyridin-3-yl)methoxy)pyrimidin-2-yl)-3-azabicyclo[4.1.0]heptan-3-yl)methyl)-4-methoxy-1-(((S)-oxetan-2-yl)methyl)-1H-benzo[d]imidazole-6-carboxylic acid]
EC50: 2.68 nM

COc1cc(Cl)ccc1COc1cccc(C23CCN(Cc4nc5ccc(C(=O)O)cc5n4C[C@@H]4CCO4)CC2C3)n1 (stereo partly drawn) [Compound 1-12, 2-((6-(6-((4-chloro-2-methoxybenzyl)oxy)pyridin-2-yl)-3-azabicyclo[4.1.0]heptan-3-yl)methyl)-1-(((S)-oxetan-2-yl)methyl)-1H-benzo[d]imidazole-6-carboxylic acid]
EC50: 26.4 nM

COc1cc(C#N)ccc1COc1ccnc(C23CCN(Cc4nc5c(OC)cc(C(=O)O)cc5n4C[C@@H]4CCO4)CC2C3)n1 (single isomer, unassigned) [Compound 1-38-A]
EC50: 16 nM

COc1cc(C#N)ccc1COc1cccc(C23CCN(Cc4nc5c(C#N)cc(C(=O)O)cc5n4C[C@@H]4CCO4)CC2C3)n1 (stereo partly drawn) [Compound 1-17, 4-cyano-2-((6-(6-((4-cyano-2-methoxybenzyl)oxy)pyridin-2-yl)-3-azabicyclo[4.1.0]heptan-3-yl)methyl)-1-(((S)-oxetan-2-yl)methyl)-1H-benzo[d]imidazole-6-carboxylic acid]
EC50: 6.66 nM

CCOc1cc(C#N)ccc1COc1ccnc(C23CCN(Cc4nc5c(OC)cc(C(=O)O)cc5n4C[C@@H]4CCO4)CC2C3)n1 (stereo partly drawn) [Compound 1-39, 2-((6-(4-((4-cyano-2-ethoxybenzyl)oxy)pyrimidin-2-yl)-3-azabicyclo[4.1.0]heptan-3-yl)methyl)-4-methoxy-1-(((S)-oxetan-2-yl)methyl)-1H-benzo[d]imidazole-6-carboxylic acid]
EC50: 29 nM
